Results from patent publication US20240315299A1, “AMIDE COMPOUNDS AND THEIR USE AS FLAVOR MODIFIERS” (FIRMENICH INCORPORATED, priority 2021, published 2024).

target: T1, T1R umami taste receptor (Homo sapiens, UniProt Q7RTX0+Q7RTX1); test: in vitro cell-based assay, enhancement of MSG binding at umami taste receptor; conditions: cells that express the T1R umami taste receptor, from dose-binding curves
T1 sequence (Q7RTX1 21-841): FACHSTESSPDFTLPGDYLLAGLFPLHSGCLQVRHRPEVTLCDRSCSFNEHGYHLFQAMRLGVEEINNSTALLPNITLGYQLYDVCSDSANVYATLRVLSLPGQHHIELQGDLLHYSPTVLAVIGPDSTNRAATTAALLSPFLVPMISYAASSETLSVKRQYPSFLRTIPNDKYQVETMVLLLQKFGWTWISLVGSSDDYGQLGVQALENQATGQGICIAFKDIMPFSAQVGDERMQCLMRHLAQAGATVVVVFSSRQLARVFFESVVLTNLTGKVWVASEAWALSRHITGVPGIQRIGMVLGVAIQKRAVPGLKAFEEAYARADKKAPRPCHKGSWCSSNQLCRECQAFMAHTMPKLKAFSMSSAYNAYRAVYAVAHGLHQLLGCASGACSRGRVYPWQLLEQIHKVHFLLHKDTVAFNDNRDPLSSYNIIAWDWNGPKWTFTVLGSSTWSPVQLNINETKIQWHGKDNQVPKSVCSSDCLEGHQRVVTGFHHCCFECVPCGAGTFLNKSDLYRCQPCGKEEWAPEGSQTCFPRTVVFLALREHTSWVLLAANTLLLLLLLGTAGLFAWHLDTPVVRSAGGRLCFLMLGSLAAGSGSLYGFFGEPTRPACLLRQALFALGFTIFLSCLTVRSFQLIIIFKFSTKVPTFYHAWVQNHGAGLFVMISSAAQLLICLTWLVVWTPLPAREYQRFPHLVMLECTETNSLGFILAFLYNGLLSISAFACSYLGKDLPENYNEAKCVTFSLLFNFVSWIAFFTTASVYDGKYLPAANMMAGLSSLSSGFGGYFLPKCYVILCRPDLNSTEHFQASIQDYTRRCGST
T1 sequence (Q7RTX0 21-852): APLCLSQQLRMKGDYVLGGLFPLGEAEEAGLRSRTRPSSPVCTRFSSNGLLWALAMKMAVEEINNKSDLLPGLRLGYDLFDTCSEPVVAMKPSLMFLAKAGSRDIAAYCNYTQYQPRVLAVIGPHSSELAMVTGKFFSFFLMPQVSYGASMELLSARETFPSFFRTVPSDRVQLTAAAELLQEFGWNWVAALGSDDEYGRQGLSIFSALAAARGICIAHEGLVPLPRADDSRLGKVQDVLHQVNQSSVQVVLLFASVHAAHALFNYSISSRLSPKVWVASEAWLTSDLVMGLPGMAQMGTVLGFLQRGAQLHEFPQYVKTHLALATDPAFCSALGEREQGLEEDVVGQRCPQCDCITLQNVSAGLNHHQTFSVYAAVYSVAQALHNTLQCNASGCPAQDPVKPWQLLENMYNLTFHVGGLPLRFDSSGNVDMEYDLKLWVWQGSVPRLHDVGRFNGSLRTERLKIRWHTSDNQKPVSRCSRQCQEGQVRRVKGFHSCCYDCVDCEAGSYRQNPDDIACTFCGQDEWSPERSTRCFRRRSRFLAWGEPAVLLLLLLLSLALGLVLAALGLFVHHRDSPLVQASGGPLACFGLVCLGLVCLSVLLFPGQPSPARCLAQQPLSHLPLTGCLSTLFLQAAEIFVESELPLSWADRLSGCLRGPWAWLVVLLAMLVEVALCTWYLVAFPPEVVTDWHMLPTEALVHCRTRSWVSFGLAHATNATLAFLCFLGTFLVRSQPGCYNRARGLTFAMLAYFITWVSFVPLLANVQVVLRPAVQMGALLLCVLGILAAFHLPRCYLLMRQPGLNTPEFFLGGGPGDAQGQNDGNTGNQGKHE
Description: Each of Compounds 101-135, as well as Compounds 168 and 169, (as set forth in Table 1) was synthesized according to one of the general procedures set forth above in Examples 1 to 4. Thereafter, the compounds were tested in an in vitro cell-based assay having cells that express the T1R umami taste receptor. Dose-binding curves were recorded and the EC50 was determined for enhancement of MSG binding. Table 2 sets forth the calculated EC50 values for certain tested compounds.

SMILES	EC50 [µM]
CC(=O)NCCCCNC(=O)/C=C/c1ccccc1 [Compound 107]	> 50
CC(C)C(=O)NCCCCNC(=O)/C=C/c1ccccc1 [Compound 108]	> 50
CCC(C)C(=O)NCCCCNC(=O)/C=C/c1ccccc1 (stereo not shown) [Compound 109]	> 50
C/C=C(/C)C(=O)NCCCCNC(=O)/C=C/c1ccccc1 [Compound 114]	> 50
CC(C)=CC(=O)NCCCCNC(=O)/C=C/c1ccccc1 [Compound 116, N-(4-cinnamamidobutyl)-3-methylbut-2-enamide]	> 50
CC(C)=C(C)C(=O)NCCCCNC(=O)/C=C/c1ccccc1 [Compound 117, N-(4-cinnamamidobutyl)-2,3-dimethylbut-2-enamide]	> 50
CC/C=C(\C)C(=O)NCCCCNC(=O)/C=C/c1ccccc1 [Compound 118, (E)-N-(4-cinnamamidobuty1)-2-methylpent-2-enamide]	> 50
O=C(/C=C/c1ccccc1)NCCCCNC(=O)/C=C/c1ccccc1 [Compound 122, (2E,2′E)-N,N′-(butane-1,4-diyl)bis(3-phenylacrylamide)]	> 50
O=C(/C=C/c1ccccc1)NCCCCNC(=O)c1ccccc1 [Compound 123, N-(4-cinnamamidobutyl)benzamide]	> 50
O=C(/C=C/c1ccccc1)NCCCCNC(=O)c1ccc(O)cc1 [Compound 126, N-(4-cinnamamidobutyl)-4-hydroxybenzamide]	> 50
C/C=C(\C)C(=O)NCCCCNC(=O)/C=C/c1ccc(OC)c(O)c1 [Compound 134, (E)-N-(4-((E)-3-(3-hydroxy-4-methoxyphenyl)acrylamido)butyl)-2-methylbut-2-enamide]	> 50
C/C=C(\C)C(=O)NCCCCNC(=O)/C=C/c1ccc(O)c(OC)c1 [Compound 135, (E)-N-(4-((E)-3-(4-hydroxy-3-methoxyphenyl)acrylamido)butyl)-2-methylbut-2-enamide]	> 50

The next molecules have a lower EC50 than those just listed; values first:

EC50 [µM]	SMILES
8	C/C=C(\C)C(=O)NCCCCNC(=O)c1ccc(C)cc1 [Compound 102]
< 1	C/C=C(\C)C(=O)NCCCCNC(=O)c1ccc(C)c(C)c1 [Compound 103]
2	C/C=C(\C)C(=O)NCCCCNC(=O)c1cc(C)c(C)c(C)c1 [Compound 104]
12	C/C=C(\C)C(=O)NCCCCNC(=O)c1ccc(OC)cc1 [Compound 105]
6	C/C=C(\C)C(=O)NCCCCNC(=O)c1ccc2c(c1)OCO2 [Compound 106]
< 8	C/C=C(\C)C(=O)NCCCCNC(=O)/C=C/c1ccccc1 [Compound 115, (E)-N-(4-cinnamamidobuty1)-2-methylbut-2-enamide]
< 12	C/C(=C\CO)C(=O)NCCCCNC(=O)/C=C/c1ccccc1 [Compound 119, (E)-N-(4-cinnamamidobutyl)-4-hydroxy-2-methylbut-2-enamide]
2	C/C=C(\C)C(=O)NCCCCNC(=O)/C=C/c1ccccc1OC [Compound 127, (E)-N-(4-((E)-3-(2-methoxyphenyl)acrylamido)butyl)-2-methylbut-2-enamide]
2	C/C=C(\C)C(=O)NCCCCNC(=O)/C=C/c1cccc(OC)c1 [Compound 128, (E)-N-(4-((E)-3-(3-methoxyphenyl)acrylamido)butyl)-2-methylbut-2-enamide]
< 1	C/C=C(\C)C(=O)NCCCCNC(=O)/C=C/c1ccc(OC)cc1 [Compound 129, (E)-N-(4-((E)-3-(4-methoxyphenyl)acrylamido)butyl)-2-methylbut-2-enamide]
< 1	C/C=C(\C)C(=O)NCCCCNC(=O)/C=C/c1ccc(OCC)cc1 [Compound 130, (E)-N-(4-((E)-3-(4-ethoxyphenyl)acrylamido)butyl)-2-methylbut-2-enamide]
< 1	C/C=C(\C)C(=O)NCCCCNC(=O)/C=C/c1ccc(OC)cc1OC [Compound 131, (E)-N-(4-((E)-3-(2,4-dimethoxyphenyl)acrylamido)butyl)-2-methylbut-2-enamide]
4	C/C=C(\C)C(=O)NCCCCNC(=O)/C=C/c1ccc(OC)c(OC)c1 [Compound 132, (E)-N-(4-((E)-3-(3,4-dimethoxyphenyl)acrylamido)butyl)-2-methylbut-2-enamide]
20	C/C=C(\C)C(=O)NCCCCNC(=O)/C=C/c1ccc2c(c1)OCO2 [Compound 133, (E)-N-(4-((E)-3-(benzo[d][1,3]dioxol-5-yl)acrylamido)butyl)-2-methylbut-2-enamide]
< 1	CC(=O)OC/C=C(\C)C(=O)NCCCCNC(=O)/C=C/c1ccccc1 [Compound 168, (E)-4-((4-cinnamamidobutyl)amino)-3-methyl-4-oxobut-2-en-1-yl acetate]
23	COc1ccc(C(=O)OC/C=C(\C)C(=O)NCCCCNC(=O)/C=C/c2ccccc2)cc1 [Compound 169, (E)-4-((4-cinnamamidobutyl)amino)-3-methyl-4-oxobut-2-en-1-yl 4-methoxy benzoate]
